From patent US20070077311A1, “Fumigant/sterilant” (priority 2003, published 2007)

Legend:
[1] = Flammability limit tests of cyanogen/CO2 mixtures in air; format: physicochemical
Description: The apparatus allows continuous metering and mixing of known proportions of cyanogen, carbon dioxide and air. This permitted a number of ignition tests to be made in a relatively short period.
The apparatus comprises sources of compressed air 1, carbon dioxide 2 and the active chemical cyanogen 3. […] The resultant mixture flows through tube 7 where it is diverted to an oxygen analyser 8 to determine its content, and an ignition tube 9 with ignition source 10 for flammability testing.
Similarly, for the tests involving the addition of carbon dioxide, the proportions of air and CO2 were set using the previously arrived calibration material and at least two minutes were allowed to elapse between adjustment of the CO2/air proportions and ignition tests.
Ignition tests involved switching a high voltage across an approximately 5 mm gap 10 within the flow ignition tube 9. […]
Turning to FIG. 2, it is now possible to determine what proportion of cyanogen in carbon dioxide will remain inert in all proportions with air. Line A shown in FIG. 2 has the maximum slope that can be achieved whilst still remaining wholly below the experimentally determined lower explosive limits and passing through the origin.
For reasons of safety, the Applicant has determined a preferred content of around 20% v/v as this gives an additional margin of safety.

[2] = system: rat; conditions: 1 hour inhalation; cited from earlier work
[3] = cited from earlier work

With `N#CC#N` [cyanogen] as the molecule, how does the “maximum proportion of cyanogen in carbon dioxide which is inert in all proportions with air” value ([1]; from slope of Line A in FIG. 2, ignition source 2) read?
The value was “approximately 26%”.

What about the “maximum of cyanogen in carbon dioxide gas inert in all proportions of air” value ([1]; subsequent testing) of the same molecule?
Its value is “around 26 % v/v”.

What about the LC50 [2] of the same molecule?
The LC50 was 350 ppm.

And the “Flammability limits in air” value [3]?
The value was 6-32 % v/v.

What about the “known LEL of cyanogen in air” value ([3]; literature value) of the same molecule?
The value was 6%.

What about the “known UEL of cyanogen in air” value ([3]; literature value) of the same molecule?
Its value is 32 % v/v.
